According to ChEMBL document CHEMBL1268857, “Dolabellane Diterpenoids from the South Atlantic Gorgonian Convexella magelhaenica” (J Nat Prod, 2010):

Columns and labels:
[1] = test system: PANC-1; experiment: Cytotoxicity against human PANC1 cells; format: functional, cell-based
[2] = Cytotoxicity against mouse LM3 cells; format: functional, cell-based

| Structure (SMILES) | IC50 [1] [µM] | IC50 [2] [µM] |
| --- | --- | --- |
| C=C(C)[C@@H]1CC[C@]2(C)C/C=C(\C)CC/C=C(\C)C(=O)C[C@@H]12 | 39.8 | 2.5 |
| C=C(C)[C@@H]1[C@@H](OC(C)=O)C[C@]2(C)[C@H](OC(C)=O)/C=C(\C)CC/C=C(\C)C(=O)C[C@@H]12 | 398 | 17.8 |
